Measured values as given in ChEMBL document CHEMBL4616649, “Genomics-Metabolomics Profiling Disclosed Marine Vibrio spartinae 3.6 as a Producer of a New Branched Side Chain Prodigiosin” (2020).

Legend:
Type in all cases: functional
[1] = test system: Listeria monocytogenes; assay: Antibacterial activity against Listeria monocytogenes MB677 assessed as reduction in microbial growth after 20 hrs by microdilution method; details: MB677, 20 h
[2] = test system: Staphylococcus aureus; assay: Antibacterial activity against Staphylococcus aureus ATCC 29213 assessed as reduction in microbial growth after 20 hrs by microdilution method; details: ATCC 29213, 20 h
[3] = test system: Staphylococcus aureus; assay: Antibacterial activity against Staphylococcus aureus 6538P assessed as reduction in microbial growth after 20 hrs by microdilution method
[4] = test system: Staphylococcus epidermidis; assay: Antibacterial activity against Staphylococcus epidermidis ATCC 35984 assessed as reduction in microbial growth after 20 hrs by microdilution method; details: ATCC 35984, 20 h
[5] = test system: Staphylococcus aureus; assay: Antibacterial activity against Staphylococcus aureus ATCC 23235 assessed as reduction in microbial growth after 20 hrs by microdilution method; details: ATCC 23235, 20 h
[6] = test system: Stenotrophomonas maltophilia; assay: Antibacterial activity against Stenotrophomonas maltophilia ATCC 13636 assessed as reduction in microbial growth after 20 hrs by microdilution method; details: ATCC 13636, 20 h
[7] = test system: Stenotrophomonas maltophilia; assay: Antibacterial activity against Stenotrophomonas maltophilia ATCC 13637 assessed as reduction in microbial growth after 20 hrs by microdilution method; details: ATCC 13637, 20 h
[8] = test system: Stenotrophomonas maltophilia; assay: Antibacterial activity against Stenotrophomonas maltophilia ATCC 700475 assessed as reduction in microbial growth after 20 hrs by microdilution method; details: ATCC 700475, 20 h

Structure (SMILES)	MIC [1] [µg/mL]	MIC [2] [µg/mL]	MIC50 [2] [µg/mL]	MIC50 [3] [µg/mL]	MIC [4] [µg/mL]	MIC50 [4] [µg/mL]	MIC50 [1] [µg/mL]	MIC [5] [µg/mL]	MIC50 [5] [µg/mL]	MIC [6] [µg/mL]	MIC50 [6] [µg/mL]	MIC [7] [µg/mL]	MIC50 [7] [µg/mL]	MIC [8] [µg/mL]	MIC50 [8] [µg/mL]	MIC [3] [µg/mL]
CCCCCC1=C/C(=C\c2[nH]c(-c3ccc[nH]3)cc2OC)N=C1C	1.7	3.3	0.05	0.04	2	0.33	0.16	1.3	0.06	1.7	0.13	1.7	0.66	2.7	0.5	1.7
CN[C@H](CC(C)C)C(=O)N[C@H]1C(=O)N[C@@H](CC(N)=O)C(=O)N[C@H]2C(=O)N[C@H]3C(=O)N[C@H](C(=O)N[C@H](C(=O)O)c4cc(O)cc(O)c4-c4cc3ccc4O)[C@H](O)c3ccc(c(Cl)c3)Oc3cc2cc(c3O[C@@H]2O[C@H](CO)[C@@H](O)[C@H](O)[C@H]2O[C@H]2C[C@](C)(N)[C@H](O)[C@H](C)O2)Oc2ccc(cc2Cl)[C@H]1O [VANCOMYCIN]	–	–	–	–	–	–	–	–	–	–	–	–	–	–	–	1.7

Continued, in another order:

MIC [1] [µg/mL]	MIC [2] [µg/mL]	MIC50 [2] [µg/mL]	MIC50 [3] [µg/mL]	MIC [4] [µg/mL]	MIC50 [4] [µg/mL]	MIC50 [1] [µg/mL]	MIC [5] [µg/mL]	MIC50 [5] [µg/mL]	MIC [6] [µg/mL]	MIC50 [6] [µg/mL]	MIC [7] [µg/mL]	MIC50 [7] [µg/mL]	MIC [8] [µg/mL]	MIC50 [8] [µg/mL]	Structure (SMILES)	MIC [3] [µg/mL]
0.8	–	–	–	–	–	–	–	–	–	–	–	–	–	–	CC1(C)S[C@@H]2[C@H](NC(=O)[C@H](N)c3ccccc3)C(=O)N2[C@H]1C(=O)O [AMPICILLIN]	–
4	4	0.06	0.05	3.3	0.5	0.4	3.3	0.08	3.3	1	3.3	2	5.3	1.7	COc1cc(-c2ccc[nH]2)[nH]c1/C=C1\N=C(C)C2=C1C(C)CCC2 (stereo not drawn)	3.3
21	27	0.5	0.2	27	2.7	3.3	21	0.5	27	3.3	27	3.3	27	4	COc1cc(-c2ccc[nH]2)[nH]c1/C=C1/C=C(CCCCC(C)C)C(C)=N1	21
–	–	–	–	–	–	–	–	–	4	–	3.3	–	4	–	O=C(N[C@H](CO)[C@H](O)c1ccc([N+](=O)[O-])cc1)C(Cl)Cl [CHLORAMPHENICOL]	–
